From patent US20250163104A1, “MACROCYCLIC IMMUNOMODULATORS” (priority 2021, published 2025)
*1 amine or outer side, *2 acyl side, *3 side chain or, on linkers, in order; H or OH if unused. Where a SMILES comes first, the peptide text is derived from it. Bridges are numbered along the chain shown (N, C = ends). [ ]: non-standard residue; d: D form. The star is where a group is joined. X3 = O=C([C@H](CCCNC[C@@H](O)[C@H](O)[C@H](O)[C@@H](O)[C@H](O)CO)N[*:1])[*:2]; X4 = O=C([C@H](CCNC[C@@H](O)[C@H](O)[C@H](O)[C@@H](O)[C@H](O)CO)N[*:1])[*:2]; Bip = N[C@@H](Cc1ccc(-c2ccccc2)cc1)C(=O)O; Phe(3-Me) = Cc1cccc(C[C@H](N)C(=O)O)c1; Val(3-OH) = CC(C)(O)[C@H](N)C(=O)O; Cha = N[C@@H](CC1CCCCC1)C(=O)O; Carboxymethyl = O=C(O)C*; Nle = CCCC[C@H](N)C(=O)O; Orn = NCCC[C@H](N)C(=O)O; Pra = C#CC[C@H](N)C(=O)O; Dab = NCC[C@H](N)C(=O)O; Nva = CCC[C@H](N)C(=O)O

Target: T1, human PD-1 / PD-L1-Ig binding on Jurkat cell line over-expressing human PD-1 (Jurkat-PD-1) (Homo sapiens, UniProt Q15116)
T1 construct: expressed in transfected cells; host or cells: Jurkat
T1 sequence (Q15116 25-288): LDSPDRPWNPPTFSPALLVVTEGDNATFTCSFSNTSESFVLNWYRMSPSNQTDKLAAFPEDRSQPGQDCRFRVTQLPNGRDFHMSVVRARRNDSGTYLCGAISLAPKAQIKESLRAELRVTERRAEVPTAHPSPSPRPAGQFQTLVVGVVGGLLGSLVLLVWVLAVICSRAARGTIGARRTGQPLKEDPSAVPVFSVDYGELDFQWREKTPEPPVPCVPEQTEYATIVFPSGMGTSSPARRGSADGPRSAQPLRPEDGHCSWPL
Test: Jurkat-PD-1 Cell Binding High-Content Screening Assay (CBA)
Assay type: cell-based
Conditions: Jurkat-PD-1 cells, PE-labeled PD-L1-Ig 20 nM final; read-out: Jurkat HPD1_PDL1 IC50
Procedure, shortened: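 PE-PD-L1-Ig 20 nM final; cells in DMEM/10% FCS; cpd pre-incubation 2 h, 37° C; ligand 1 h; PFA fix + Hoechst 33342; high-content imaging read-out.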

IC50 [nM] | Structure (SMILES)
26.2 | C#CC[C@H](NC(=O)[C@H](C)NC(=O)[C@@H]1CSCC(=O)N[C@@H](CCN)C(=O)N[C@@H](Cc2ccc(OCC(=O)O)cc2)C(=O)N[C@@H](CC(=O)O)C(=O)N[C@@H](Cc2cccc(C)c2)C(=O)N[C@@H](Cc2ccc(OCC(=O)O)cc2)C(=O)N[C@@H](Cc2ccc(-c3ccccc3)cc2)C(=O)N[C@@H](Cc2ccc(OCC(=O)O)cc2)C(=O)N[C@@H](CCCN)C(=O)N[C@H](CC(C)C)C(=O)N[C@@H](CCN)C(=O)N[C@@H](CC2CCCCC2)C(=O)N[C@@H](C(C)(C)O)C(=O)N[C@@H](CCC)C(=O)N1)C(=O)O [Compound 2697] ({CH2CO}-[Dab]Y(Carboxymethyl)D[Phe(3-Me)]Y(Carboxymethyl)[Bip]Y(Carboxymethyl)[Orn][dL][Dab][Cha][Val(3-OH)][Nva]CA[Pra]-OH; thioether N-14)
129 | C#CC[C@H](NC(=O)[C@@H]1CSCC(=O)N[C@@H](CCC)C(=O)N[C@@H](Cc2ccc(OCC(=O)O)cc2)C(=O)N[C@@H](CC(=O)O)C(=O)N[C@@H](Cc2cccc(C)c2)C(=O)N[C@@H](Cc2ccc(OCC(=O)O)cc2)C(=O)N[C@@H](Cc2ccc(-c3ccccc3)cc2)C(=O)N[C@@H](Cc2ccc(OCC(=O)O)cc2)C(=O)N[C@@H](CCCNC[C@@H](O)[C@H](O)[C@H](O)[C@@H](O)[C@H](O)CO)C(=O)N[C@H](CC(C)C)C(=O)N[C@@H](CCC)C(=O)N[C@@H](CC2CCCCC2)C(=O)N[C@@H](C(C)C)C(=O)N[C@@H](CCC(=O)O)C(=O)N1)C(=O)O [Compound 2698] ({CH2CO}-[Nva]Y(Carboxymethyl)D[Phe(3-Me)]Y(Carboxymethyl)[Bip]Y(Carboxymethyl)[X3][dL][Nva][Cha]VEC[Pra]-OH; thioether N-14)
239 | C#CC[C@H](NC(=O)[C@@H]1CSCC(=O)N[C@@H](CCC)C(=O)N[C@@H](Cc2ccc(OCC(=O)O)cc2)C(=O)N[C@@H](CC(=O)O)C(=O)N[C@@H](Cc2cccc(C)c2)C(=O)N[C@@H](Cc2ccc(OCC(=O)O)cc2)C(=O)N[C@@H](Cc2ccc(-c3ccccc3)cc2)C(=O)N[C@@H](Cc2ccc(OCC(=O)O)cc2)C(=O)N[C@@H](CCCC)C(=O)N[C@H](CC(C)C)C(=O)N[C@@H](CCNC[C@@H](O)[C@H](O)[C@H](O)[C@@H](O)[C@H](O)CO)C(=O)N[C@@H](CC2CCCCC2)C(=O)N[C@@H](C(C)C)C(=O)N[C@@H](CCC(=O)O)C(=O)N1)C(=O)O [Compound 2699] ({CH2CO}-[Nva]Y(Carboxymethyl)D[Phe(3-Me)]Y(Carboxymethyl)[Bip]Y(Carboxymethyl)[Nle][dL][X4][Cha]VEC[Pra]-OH; thioether N-14)
62.3 | C#CC[C@H](NC(=O)[C@@H]1CSCC(=O)N[C@@H](CCC)C(=O)N[C@@H](Cc2ccc(OCC(=O)O)cc2)C(=O)N[C@@H](CC(=O)O)C(=O)N[C@@H](Cc2cccc(C)c2)C(=O)N[C@@H](Cc2ccc(OCC(=O)O)cc2)C(=O)N[C@@H](Cc2ccc(-c3ccccc3)cc2)C(=O)N[C@@H](Cc2ccc(OCC(=O)O)cc2)C(=O)N[C@@H](CCCNC[C@@H](O)[C@H](O)[C@H](O)[C@@H](O)[C@H](O)CO)C(=O)N[C@H](CC(C)C)C(=O)N[C@@H](CCNC[C@@H](O)[C@H](O)[C@H](O)[C@@H](O)[C@H](O)CO)C(=O)N[C@@H](CC2CCCCC2)C(=O)N[C@@H](C(C)C)C(=O)N[C@@H](CCC(=O)O)C(=O)N1)C(=O)O [Compound 2700] ({CH2CO}-[Nva]Y(Carboxymethyl)D[Phe(3-Me)]Y(Carboxymethyl)[Bip]Y(Carboxymethyl)[X3][dL][X4][Cha]VEC[Pra]-OH; thioether N-14)
